Series [1] has as its system cardiac tissue prostacyclin (PGI2) to thromboxane A2 (TXB2) ratio. Put plainly: Cardiac tissue prostacyclin to thromboxane ratio. The format is in vivo, rat. Conditions: male Wistar rats. The source says:
(§1) Myocardial infarction and ischemic events in high risk patients led one of the most popular COX-2 inhibitors to its demise (Bresalier et al., 2005). Non-selective NSAIDS may also cause similar problems due to their ability to inhibit COX-2. […] Adenosine diphosphate (ADP) generation is an indicator of myocardial infarction which has no connection with the arachidonic acid cascade (Borna et al., 2005). […] Long term NSAID use has been linked to kidney damage and hypertension (Zafirovska et al., 1993). […] This was associated with an increase in the urine the ratio of alanine-amino-peptidase (AAP) and creatinine.
(§2) Table 1 is a summary of the protocol for a study which was conducted in male Wistar rats weighing 275-300 grams. The animals were allowed to acclimatize for at least five days prior to the commencement of the study. The study protocol was approved by the local animal ethics committee.
All rats were euthanized by removal of the heart 6 hours after initial dosing, following final blood collections. Immediately after terminal blood collections were complete, the thorax was opened and the heart removed. The heart was cut in half longitudinally. Half of the heart was placed in formalin for histological examination. The other half was quickly rinsed in saline and then freeze-clamped (crushed between the jaws of a pair of modified tongs, cooled by liquid nitrogen). An entire kidney was freeze-clamped. The other kidney was left in situ for examination by the pathologist. Freeze-clamped tissues were wrapped in labeled aluminum foil and stored in liquid nitrogen until they could be transferred to a −80° C. freezer. Freeze-clamped tissues were shipped on dry ice to NOVOKIN for analysis.

Series [2] is described as follows: Serum nitrate concentration (NO release) after oral dosing. The series is classed as in vivo, rat. Conditions: male Wistar rats, oral gavage, at 6 hours. The procedure: as §2
(§3) The animals were fasted overnight prior to test substance administration. The test substance was administered orally by gavage on the morning of the study day. All test animals had blood collected during the test period in both EDTA (ethylenediaminetetraacetic acid) tubes and SST (Serum Separator Tubes) at 1, 3 and 6 hours after dosing. Blood was collected into EDTA tubes only at 1 and 3 hours by tail tip amputation. Volume of blood collected was between 0.5 and 1 mL at each of these collections. The final collection was by puncture of the abdominal vena cava under isoflurane general anesthesia. Final blood collection was targeted as follows: 1st EDTA #1—1.5 mL; 2nd SST—1.5 mL; 3rd EDTA #2—as much as possible.
EDTA samples were centrifuged, and the plasma portion was collected and frozen at −80° C. SST samples were incubated at 37° C. for approximately 45 minutes, centrifuged, and the serum was collected and frozen at −80° C. until analysis.

Series [3] relates to male Wistar rats. In words: Urine alanine aminopeptidase to creatinine ratio (proximal tubular kidney damage). The format is in vivo, rat. The settings on record: oral gavage, urine collected for 6 hours.
Source text: as §1, §2
(§4) All test animals, housed in metabolic cages, had urine collected over wet ice for 6 hours after dosing. Aliquots of the urine from each animal were collected to determine creatinine concentration. The remainder of the urine was centrifuged at 1000 g for 10 minutes. The supernatant was collected and mixed with analytical grade ethylene glycol at a rate of 0.4 mL ethylene glycol per 1 mL urine supernatant. The ethylene glycol/urine mixture was stored at −80° C. until analysis.

The conditions of series [4]: Rat; estimated from Table II - Runkle, 1972; cited from earlier work.
For series [5], the system named is male Wistar rats. In words: Gastric ulcer index after oral dosing. The series is classed as in vivo, rat. The procedure: as §2, §3
Each animal from all groups underwent a full necropsy under the supervision of a board certified veterinary pathologist. The stomach of each rat was cut along the greater curvature, contents removed into a polypropylene (Falcon) tube, the mucosa rinsed with saline and any obvious ulcers or erosions were measured along the longest axis. This measurement was recorded for each ulcer or erosion observed in each stomach. The falcon tubes and their contents were frozen at −80° C. and shipped to Novokin on dry ice for analysis.
The aggregate length of all gastric ulcers found in a given animal was calculated. The mean aggregate ulcer length across animals in a group was calculated. This mean value was reported as the ulcer index for that group.
The ulcer index of each modified drug was compared with the ulcer index of its associated parent drug and the controls using analysis of variance and Duncan's multiple range test for pairwise comparisons. Statistical analysis was done using SAS® (SAS Institute Inc., Cary, N.C.).

For series [6] the following is noted: Human; estimated from Table II - Runkle, 1972; cited from earlier work.
Series [7] deals with male Wistar rats. Put plainly: Urine N-acetylglucosaminidase to creatinine ratio (distal tubule toxicity). The format is in vivo, rat. The settings on record: oral gavage, urine collected for 6 hours. The procedure:
as §2, §4

Read-outs that look alike come from different tables or passages of the source.

These results are taken from patent US20080288176A1 (priority 2005, published 2008).

For `COc1ccc2cc([C@H](C)C(=O)O)ccc2c1` [NAP, naproxen], the “PGI2 and TXA2 levels (in words)” value in series [1] (cardiac tissue) is “lowered both PGI2 and TXA2 levels”. Besides, the “Cardiac Tissue PGI2/TXB2, Mean” value in series [1] (oral gavage, heart removed 6 hours after dosing) amounted to 4.544. Moreover, the “Serum Nitrate Concentrations, Mean” value in series [2] is given as 55.167. Also, the “AAP/Cr (urine alanine aminopeptidase to creatinine), Mean” value with male Wistar rats [3] worked out at 263.788. In addition, the liver microsomal activity in series [4] is 0.0075 mL/min/organ; in series [6], 0.0092 mL/min/organ. In the series on male Wistar rats [5] (oral gavage, naproxen 250 mg/kg or molar equivalent (ROF 250 mg/kg), 6 h after dosing, mean aggregate gastric ulcer length), the “Ulcer Indices, Mean” value was determined as 4.282. The “Ulcerogenicity (in words)” value with male Wistar rats [5] (oral, 6 h) is listed as “severely ulcerogenic”. For the same compound, the “Urine NAG/Cr values, Mean” value in the series on male Wistar rats [7] was determined as 30.865.
